Data as given in publication PMC3805374 (Life sciences, 2013).

Columns and labels:
D1R = D1R (Rattus norvegicus, UniProt P18901); test: cAMP level in NG108-15/HA-D1R and CHO-FLAG-DOPR/HA-D1R cells; type: cell-based; details: NG108-15/HA-D1R cells and CHO-FLAG-DOPR/HA-D1R cells; data not shown
FLAG-mDOPR [1] = target: T1, FLAG-mDOPR (Mus musculus, UniProt P32300); type: cell-based; details: 10 μM pretreatment for 30 min or 24 h
endogenous DOPR = endogenous DOPR (Mus musculus, UniProt P32300); test: DPDPE-stimulated [35S]GTPγS binding to membranes of NG 108-15-HA-D1R cells; type: biochemical, mouse neuroblastoma × rat glioma hybrid; details: NG 108-15-HA-D1R cells pretreated with 10 μM for 30 min, n=3
ERK1/2 phosphorylation = test: Immunoblot analysis of phosphorylated ERK1/2 in CHO-FLAG-DOPR/HA-D1R cells; type: cell-based, Chinese hamster; details: 10 μM for 30 min
FLAG-mouse DOPR = FLAG-mouse DOPR (Mus musculus, UniProt P32300); type: biochemical; details: CHO-FLAG-DOPR/HA-D1R cells pretreated with 10 μM for 30 min, n=3
FLAG-mDOPR [2] = target: T1, FLAG-mDOPR; test: Phosphorylation of the DOPR; type: cell-based; details: CHO-FLAG-DOPR/HA-D1R cells; 10 μM for 30 min

T1 sequence (P32300 whole entry): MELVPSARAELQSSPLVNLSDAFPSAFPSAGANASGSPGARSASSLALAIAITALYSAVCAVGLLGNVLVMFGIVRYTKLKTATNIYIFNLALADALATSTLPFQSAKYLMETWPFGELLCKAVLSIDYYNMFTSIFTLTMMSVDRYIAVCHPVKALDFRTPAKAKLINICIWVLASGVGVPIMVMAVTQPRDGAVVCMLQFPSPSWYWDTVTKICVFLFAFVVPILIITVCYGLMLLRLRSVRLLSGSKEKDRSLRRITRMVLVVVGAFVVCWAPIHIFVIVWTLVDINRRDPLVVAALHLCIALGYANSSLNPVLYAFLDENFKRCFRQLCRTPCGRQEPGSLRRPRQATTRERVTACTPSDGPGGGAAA
Sequence of endogenous DOPR (P32300 whole entry): as above
Sequence of FLAG-mouse DOPR (P32300 whole entry): as above
Sequence of D1R (P18901 whole entry): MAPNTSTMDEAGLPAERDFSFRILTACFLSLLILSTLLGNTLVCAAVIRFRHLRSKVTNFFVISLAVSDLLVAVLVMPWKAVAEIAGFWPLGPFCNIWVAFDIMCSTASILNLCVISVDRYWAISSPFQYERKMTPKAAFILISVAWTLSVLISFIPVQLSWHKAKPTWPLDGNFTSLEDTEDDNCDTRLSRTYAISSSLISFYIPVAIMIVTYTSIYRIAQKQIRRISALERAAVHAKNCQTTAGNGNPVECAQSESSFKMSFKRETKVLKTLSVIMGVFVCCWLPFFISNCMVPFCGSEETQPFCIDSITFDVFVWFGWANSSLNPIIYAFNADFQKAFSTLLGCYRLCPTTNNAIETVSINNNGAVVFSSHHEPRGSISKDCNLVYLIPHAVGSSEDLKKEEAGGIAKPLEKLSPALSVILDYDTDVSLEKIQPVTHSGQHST

Br.C=CCN1CCc2c(cc(O)c(O)c2Cl)C(c2ccccc2)C1 (racemic) [SKF-82958, (±)-chloro-APB HBr]
cAMP level (D1R): dose-dependently increased cAMP level | Effect on total or cell surface DOPRs (FLAG-mDOPR [1]): did not affect total or cell surface DOPRs | Basal [35S]GTPγS binding after pretreatment (endogenous DOPR): 14.5 ± 1.9 fmol/mg protein | ERK1/2 phosphorylation compared with the control (ERK1/2 phosphorylation): produced a marked increase in ERK1/2 phosphorylation | Basal [35S]GTPγS binding after pretreatment (FLAG-mouse DOPR): 42.6 ± 7.0 fmol/mg protein | Phosphorylation of the DOPR (FLAG-mDOPR [2]): did not induce phosphorylation of the DOPR
